In ChEMBL document CHEMBL4385605, “Synthesis and Structure-Affinity Relationships of Spirocyclic Benzopyrans with Exocyclic Amino Moiety” (J Med Chem, 2019):
Calls of active or inactive are those of the source. The rule behind the calls is not given here.

Tests used:
[1] = Selectivity ratio of Ki for displacement of [3H]DTG from sigma2 receptor in rat liver membranes to Ki for displacement of (+)-[3H]pentazocine from sigma 1 receptor in guinea pig brain cortex membranes; format: cell membranes
[2] = biological target: Mu-type opioid receptor (Cavia porcellus) (UniProt P97266); assay: Displacement of [3H]DAMGO from mu opioid receptor in guinea pig brain membranes at 1 uM after 120 mins by scintillation counting analysis relative to control; format: cell membranes
[3] = biological target: Sigma intracellular receptor 2 (Homo sapiens, UniProt Q5BJF2); assay: Displacement of [3H]-di-o-tolylguanidine from sigma2 receptor in human RT4 cell membranes incubated for 120 mins in the presence of sigma1 receptor ligand (+)-pentazocine by scintillation counting method
[4] = biological target: Delta-type opioid receptor (Rattus norvegicus, UniProt P33533); assay: Displacement of [3H]DPDPE from delta opioid receptor in rat membranes after 120 mins by scintillation counting analysis; format: cell membranes
[5] = biological target: T1, Sigma intracellular receptor 2 (Rattus norvegicus, UniProt Q5U3Y7); assay: Displacement of [3H]-di-o-tolylguanidine from sigma2 receptor in rat liver membranes incubated for 120 mins in the presence of sigma1 receptor ligand (+)-pentazocine by scintillation counting method; format: cell membranes
T1 sequence (Q5U3Y7 whole entry): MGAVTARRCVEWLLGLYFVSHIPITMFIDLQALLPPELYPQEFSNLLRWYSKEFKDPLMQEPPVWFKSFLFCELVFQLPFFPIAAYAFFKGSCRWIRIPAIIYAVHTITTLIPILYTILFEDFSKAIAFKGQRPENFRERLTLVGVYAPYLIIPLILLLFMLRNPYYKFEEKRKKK

[6] = biological target: Kappa-type opioid receptor (Cavia porcellus) (UniProt P41144); assay: Displacement of [3H]U69,593 from kappa opioid receptor in guinea pig brain membrane at 1 uM after 120 mins by scintillation counting analysis relative to control; format: cell membranes
[7] = biological target: Sigma non-opioid intracellular receptor 1 (Cavia porcellus, UniProt Q60492); assay: Displacement of [3H](+)-pentazocine from sigma 1 receptor in guinea pig brain cortex membranes after 120 mins by scintillation counting analysis; format: cell membranes
Sus scrofa = species: Sus scrofa; assay: Displacement of [3H]-(+)-MK-801 from PCP binding site of NMDA receptor in pig brain cortex membranes up to 1 uM after 120 mins by scintillation counting analysis; format: cell membranes
[8] = biological target: Kappa-type opioid receptor (Cavia porcellus, UniProt P41144); assay: Displacement of [3H]U69,593 from kappa opioid receptor in guinea pig brain membrane after 120 mins by scintillation counting analysis; format: cell membranes
Mu-type opioid receptor = Mu-type opioid receptor (Cavia porcellus, UniProt P97266); assay: Displacement of [3H]DAMGO from mu opioid receptor in guinea pig brain membranes after 120 mins by scintillation counting analysis; format: cell membranes
[9] = biological target: Delta-type opioid receptor (Rattus norvegicus) (UniProt P33533); assay: Displacement of [3H]DPDPE from delta opioid receptor in rat membrane at 1 uM after 120 mins by scintillation counting analysis relative to control; format: cell membranes
Sequence of Delta-type opioid receptor (Rattus norvegicus) (P33533 whole entry): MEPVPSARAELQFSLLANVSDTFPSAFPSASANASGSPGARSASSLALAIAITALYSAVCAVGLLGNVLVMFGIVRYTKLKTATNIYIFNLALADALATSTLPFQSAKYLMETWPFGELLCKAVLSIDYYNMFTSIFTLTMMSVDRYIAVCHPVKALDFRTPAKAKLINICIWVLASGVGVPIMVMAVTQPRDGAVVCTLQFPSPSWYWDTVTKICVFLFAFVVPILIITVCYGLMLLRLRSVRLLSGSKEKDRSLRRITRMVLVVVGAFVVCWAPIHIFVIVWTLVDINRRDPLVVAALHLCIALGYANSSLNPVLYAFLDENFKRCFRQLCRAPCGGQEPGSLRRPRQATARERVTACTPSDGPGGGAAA

Sequence of Sigma non-opioid intracellular receptor 1 (Q60492 whole entry): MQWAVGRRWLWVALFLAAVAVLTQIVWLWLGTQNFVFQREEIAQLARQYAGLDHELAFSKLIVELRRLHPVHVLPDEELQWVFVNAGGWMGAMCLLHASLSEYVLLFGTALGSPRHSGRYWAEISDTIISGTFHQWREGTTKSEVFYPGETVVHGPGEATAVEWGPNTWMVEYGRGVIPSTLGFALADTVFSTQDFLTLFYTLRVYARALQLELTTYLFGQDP
Sequence of Mu-type opioid receptor (P97266 whole entry): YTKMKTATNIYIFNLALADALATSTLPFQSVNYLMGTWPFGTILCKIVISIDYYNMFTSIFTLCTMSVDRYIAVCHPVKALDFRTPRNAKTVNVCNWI
Sequence of Mu-type opioid receptor (Cavia porcellus) (P97266 whole entry): as above
Sequence of Sigma intracellular receptor 2 (Homo sapiens, UniProt Q5BJF2) (Q5BJF2 whole entry): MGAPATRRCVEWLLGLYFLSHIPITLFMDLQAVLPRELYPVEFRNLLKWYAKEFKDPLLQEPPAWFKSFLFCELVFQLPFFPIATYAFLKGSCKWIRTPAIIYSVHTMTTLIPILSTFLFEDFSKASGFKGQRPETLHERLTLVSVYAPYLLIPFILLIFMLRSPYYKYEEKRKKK
Sequence of Delta-type opioid receptor (P33533 whole entry): as the sequence (P33533 whole entry) above
Sequence of Kappa-type opioid receptor (P41144 whole entry): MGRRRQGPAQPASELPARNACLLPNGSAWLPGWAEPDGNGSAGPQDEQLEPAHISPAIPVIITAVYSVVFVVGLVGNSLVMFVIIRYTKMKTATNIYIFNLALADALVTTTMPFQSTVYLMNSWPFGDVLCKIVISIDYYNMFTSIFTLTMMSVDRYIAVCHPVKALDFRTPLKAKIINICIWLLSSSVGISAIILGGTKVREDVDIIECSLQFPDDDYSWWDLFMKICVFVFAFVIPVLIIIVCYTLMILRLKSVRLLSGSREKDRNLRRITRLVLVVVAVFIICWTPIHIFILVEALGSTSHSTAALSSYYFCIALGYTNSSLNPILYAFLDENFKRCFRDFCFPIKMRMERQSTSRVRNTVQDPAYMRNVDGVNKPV
Sequence of Kappa-type opioid receptor (Cavia porcellus) (P41144 whole entry): as above

SMILES | Ratio Ki [1] | inhibition [2] [%] | Ki [3] [nM] | Ki [4] [nM] | Ki [5] [nM] | inhibition [6] [%] | Ki [7] [nM] | Activity (Sus scrofa) | Ki [8] [nM] | Ki (Mu-type opioid receptor) [nM] | inhibition [9] [%]
C1=Cc2ccccc2[C@]2(CC[C@H](NCC3CCCCC3)CC2)O1 | 5 to 10 | 15 | 6.7 | 209 | 67 | 18 | 5.7 |  |  |  | 
COC1Cc2ccccc2[C@]2(CC[C@@H](NCC3CCCCC3)CC2)O1 (stereo not given in full) | 5 to 10 |  |  | 228 | 128 |  | 19 | inactive | 96 | 354 | 
CCOC1Cc2ccccc2[C@]2(CC[C@@H](NCC3CCCCC3)CC2)O1 (stereo not given in full) | 5 to 10 |  | 16 | 185 | 161 |  | 183 |  | 85 | 185 | 
CCOC1Cc2ccccc2[C@]2(CC[C@@H](N(C)CC3CCCCC3)CC2)O1 (stereo not given in full) | 24 |  | 93 |  | 361 | 24 | 15 |  |  | 879 | 13
CCOC1Cc2ccccc2[C@]2(CC[C@H](NCC3CCCCC3)CC2)O1 (stereo not given in full) | 5 to 10 |  | 46 | 432 | 308 |  | 36 |  | 745 | 495 | 
COC1O[C@]2(CC[C@H](N(C)CC3CCCCC3)CC2)c2ccccc21 (stereo not given in full) | 21 |  | 9.4 | 254 | 164 |  | 8 |  | 639 | 231 | 
c1ccc2c(c1)CCO[C@]21CC[C@@H](NCC2CCCCC2)CC1 | 5 to 10 |  | 33 |  | 84 | 16 | 18 |  |  | 841 | 11
COC1O[C@]2(CC[C@@H](NCC3CCCCC3)CC2)c2ccccc21 (stereo not given in full) | 5 to 10 |  | 11 | 143 | 52 | 23 | 20 |  |  | 501 | 
CN(CC1CCCCC1)[C@H]1CC[C@@]2(CC1)OCCc1ccccc12 | 22 |  | 12 | 187 | 175 | 23 | 8 |  |  |  | 
COC1O[C@]2(CC[C@@H](N(C)CC3CCCCC3)CC2)c2ccccc21 (stereo not given in full) | 5 to 10 | 16 | 7.6 | 559 | 70 | 0 | 8.2 |  |  |  | 
CN(CC1CCCCC1)[C@H]1CC[C@]2(CC1)OCCc1ccccc12 | 5 to 10 | 13 | 5.5 | 565 | 30 | 10 | 3.1 |  |  |  | 
COC1O[C@]2(CC[C@H](NCC3CCCCC3)CC2)c2ccccc21 (stereo not given in full) | 5 to 10 |  | 39 | 114 | 133 |  | 19 |  | 506 | 273 | 
COC1Cc2ccccc2[C@]2(CC[C@H](NCC3CCCCC3)CC2)O1 (stereo not given in full) | 5 to 10 |  |  |  | 101 | 28 | 5.8 | inactive |  | 462 | 33
CN(CC1CCCCC1)[C@H]1CC[C@]2(CC1)OC=Cc1ccccc12 | 5 to 10 |  | 4.6 |  | 33 |  | 2.3 |  |  | 391 | 38
c1ccc2c(c1)CCO[C@]21CC[C@H](NCC2CCCCC2)CC1 | 5 to 10 |  | 8 | 178 | 99 |  | 15 |  | 236 | 114 | 
CCOC1Cc2ccccc2[C@]2(CC[C@H](N(C)CC3CCCCC3)CC2)O1 (stereo not given in full) | 5 to 10 |  | 14 | 356 | 42 | 18 | 8.1 |  |  | 297 | 
C1=Cc2ccccc2[C@]2(CC[C@@H](NCC3CCCCC3)CC2)O1 | 5 to 10 |  | 7 | 479 | 53 |  | 12 |  | 604 | 258 | 
c1ccc(CN[C@H]2CC[C@]3(CC2)OCCc2ccccc23)cc1 | 5 to 10 | 0 |  |  | 503 | 0 | 97 |  |  |  | 20
COC1O[C@]2(CC[C@@H](NCc3ccccc3)CC2)c2ccccc21 (stereo not given in full) | 5 to 10 |  |  | 655 | 751 |  | 50 |  | 1140 | 768 | 
COC1Cc2ccccc2[C@]2(CC[C@H](NCc3ccccc3)CC2)O1 (stereo not given in full) |  | 20 | 227 |  |  | 27 |  | inactive |  |  | 41
CN(CC1CCCCC1)[C@H]1CC[C@@]2(CC1)OC=Cc1ccccc12 | 5 to 10 |  | 16 |  | 81 |  | 4.9 |  |  | 163 | 11
